Results as given in PMC5984089, “FBXW7 regulates DISC1 stability via the ubiquitin-proteosome system” (Molecular Psychiatry, 2017).
Residues, ends and D or L forms follow the SMILES beside them. *: point of attachment. Cbz = O=C(OCc1ccccc1)*

Tested on: DISC1, neural progenitors derived from patients carrying a 4-bp deletion in the DISC1 gene
Assay: DISC1 protein level in patient iPS-derived neural progenitors (DISC1 frameshift, 4-bp deletion), western blot
Format: cell-based, human
Excerpt: All iPS derived neural progenitors were provided by Pfizer Neuroscience (Cambridge, MA, USA). The iPS cell lines D2 and D3 and family control cell line C1 were generated using a non-integrated approach by Dr Hongjun Song at Johns Hopkins University and cultured as described previously.[8] The Detroit iPS cell line was generated by Dr S. Engle at Pfizer Neuroscience. Detroit 551 fibroblasts were obtained from ATCC (CCL-110) and maintained in Knockout DMEM (Life Technologies 10829-018), 15% FBS (Life Technologies), 1x Non-essential amino acids (Life Technologies 11140-050), 2 mM L-glutamine (Life Technologies 25030-081), 1x Gentamicin (Life Technologies 15710-072), 0.1 mM β-mercaptoethanol (Sigma M-7522). The cells were reprogrammed with individual lentiviruses expressing c-MYC, KLF4, SOX2, OCT3/4, NANOG, and LIN28. One colony, Detroit 551-3, with ES-like morphology, high expression of pluripotency markers (for example, OCT3/4, TRA-1-60, TRA-1-81, SSEA4), a normal karyotype, […] the ability to form all three germ layers in a teratoma assay was used in all subsequent experiments. […]

SMILES: CC(C)C[C@@H](C=O)NC(=O)[C@H](CC(C)C)NC(=O)[C@H](CC(C)C)NC(=O)OCc1ccccc1 [MG132] (Cbz-Leu-Leu-Leu-aldehyde)
- DISC1 protein level in NPs from D2-1 (patient) iPS cells, proteasomal inhibition (MG132 10 µM, day 18, up to 3 hours, n=2, western blot): stabilization of DISC1 protein levels within first 30 min up to 3 hours
- DISC1 level in patient-derived NP cells after MG132 (MG132, Supplementary Figure 10D): could be enhanced by MG132 treatment
